The source of these data is publication PMC10674565 (Pharmaceuticals, 2023).

Usually Papp A→B stands for how fast a substance crosses the layer from the apical side. A higher Papp A→B goes with ready permeation. The term Papp B→A denotes the apparent permeability from the basolateral to the apical side of a cell layer.

In the series the target is ABCB1 (Homo sapiens, UniProt P08183). The series can be described thus: EMHPS transport through the Caco-2 cells monolayer (ABCB1 substrate test). The series is classed as in vitro ADME. Also on record: Caco-2 cells were used to test the effect of EMHPS on the expression and activity of ABCB1; endogenous in cells; host or cells: Caco-2. The procedure:
The medium was changed every 2–3 days.
The medium in chambers was removed and the cell monolayers were washed twice in warm (37 °C) transport medium (Hanks‚ balanced salt solution containing 10 mM HEPES and 1% dimethylsulfoxide (DMSO)). […] Chamber–recipient was filled with transport medium without EMHPS. At 60, 120, and 180 min, 100 μL samples were taken from the recipient chamber and the drug concentration was analyzed. EMHPS transport was assessed in the absorptive (apical to basolateral, a-b) and secretory (b-a) directions.
The apparent permeability (Papp) of EMHPS through Caco-2 monolayers was calculated using Equation (1). (1) Papp=dQ/dt×1/A×C0
A, membrane surface area (1.12 cm^2); C0, EMHPS concentration at t = 0 µM; and dQ/dt, amount of EMHPS transported within a given time period µM/s.
The ratio of Papp (b-a) and Papp (a-b), known as the efflux ratio (ER), was calculated in accordance with the following Equation (2):(2) ER=Papp b-a/Papp a-b
The ER was used as a marker for permeability through Caco-2 cell monolayers.
EMHPS concentrations in the transport medium (transport experiments with Caco-2 cells) were analyzed using HPLC-UV (HPLC chromatograph Stayer) with UV detection at a wavelength of 296 nm. The sample (50 µL) was diluted in 150 µL of the mobile phase, and 100 µL of the resulting solution was injected into the chromatograph. In the analysis, a Beckman Coulter 4.6 × 150 mm, 5 μm chromatographic column was used.
The separation temperature was 35 °C. The flow rate was 0.8 mL/min. Mobile phase composition: acetonitrile and water in a 20:80 v/v ratio with the addition of acetic acid to pH 3.25. The retention time of EMHPS under these conditions was 5.5 min.
A general note: Passage across Caco-2 layers is used to estimate intestinal permeability.

Where [1] appears, read: human, EMHPS 10 µM, Caco-2 monolayer, M ± SD.
Where [2] appears, read: human, EMHPS 100 µM, Caco-2 monolayer, M ± SD.
[3] abbreviates: human, EMHPS 250 µM, Caco-2 monolayer, M ± SD.

Sequence of ABCB1 (P08183 whole entry): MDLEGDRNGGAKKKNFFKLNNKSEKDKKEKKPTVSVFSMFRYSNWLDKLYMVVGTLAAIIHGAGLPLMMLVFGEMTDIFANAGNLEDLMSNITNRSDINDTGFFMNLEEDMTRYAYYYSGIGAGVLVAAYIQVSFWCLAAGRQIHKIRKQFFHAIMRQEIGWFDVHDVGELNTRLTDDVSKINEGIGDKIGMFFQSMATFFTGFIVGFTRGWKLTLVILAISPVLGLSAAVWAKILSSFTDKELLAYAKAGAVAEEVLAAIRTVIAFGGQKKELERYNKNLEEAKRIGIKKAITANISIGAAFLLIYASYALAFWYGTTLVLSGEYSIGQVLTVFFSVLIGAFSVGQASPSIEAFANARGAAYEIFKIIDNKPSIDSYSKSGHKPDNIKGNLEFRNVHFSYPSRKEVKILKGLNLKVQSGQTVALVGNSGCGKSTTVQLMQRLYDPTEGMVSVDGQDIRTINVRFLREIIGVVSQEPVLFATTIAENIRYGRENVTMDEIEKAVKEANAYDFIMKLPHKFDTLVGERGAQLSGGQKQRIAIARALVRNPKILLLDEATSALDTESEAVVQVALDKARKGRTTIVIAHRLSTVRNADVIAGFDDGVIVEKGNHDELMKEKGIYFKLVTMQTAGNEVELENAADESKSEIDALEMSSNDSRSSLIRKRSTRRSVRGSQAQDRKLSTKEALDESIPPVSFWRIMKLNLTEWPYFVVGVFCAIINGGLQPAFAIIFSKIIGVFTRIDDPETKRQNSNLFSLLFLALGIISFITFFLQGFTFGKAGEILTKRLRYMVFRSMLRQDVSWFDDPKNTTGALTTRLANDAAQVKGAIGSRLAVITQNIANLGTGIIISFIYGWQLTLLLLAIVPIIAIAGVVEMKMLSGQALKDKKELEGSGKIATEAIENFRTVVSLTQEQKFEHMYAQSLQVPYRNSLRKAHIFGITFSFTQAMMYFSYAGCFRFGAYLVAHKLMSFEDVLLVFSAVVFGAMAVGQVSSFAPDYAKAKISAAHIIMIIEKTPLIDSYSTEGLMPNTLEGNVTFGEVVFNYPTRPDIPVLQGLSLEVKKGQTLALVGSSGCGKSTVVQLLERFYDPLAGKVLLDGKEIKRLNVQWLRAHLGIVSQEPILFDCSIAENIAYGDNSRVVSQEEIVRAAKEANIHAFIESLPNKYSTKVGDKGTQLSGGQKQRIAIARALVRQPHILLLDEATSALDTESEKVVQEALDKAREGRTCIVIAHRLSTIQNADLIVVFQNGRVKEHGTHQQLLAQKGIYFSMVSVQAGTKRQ

For `CCc1nc(C)ccc1O.O=C(O)CCC(=O)O` [EMHPS, 2-Ethyl-6-methyl-3-hydroxypyridine succinate], the “substrate of ABCB1” value (Caco-2 monolayer, 10, 100, and 250 µM) is on record as “not a substrate of ABCB1”. Under setting [1], this compound registered an apical-to-basolateral permeability (Papp A→B) at 180 min, 10 µM of 7.66 ×10⁻⁶ cm/s and a basolateral-to-apical permeability (Papp B→A) at 180 min, 10 µM of 7.56 ×10⁻⁶ cm/s. For the same compound, for the setting “human, EMHPS 10 µM, Caco-2 monolayer, M ± SD, read-out: ER (Papp b-a/Papp a-b)”, the efflux ratio at 180 min, 10 µM came to 0.99 ± 0.323. Under setting [2], the apparent permeability from apical to basolateral (Papp A→B) at 180 min, 100 µM is 7.05 ×10⁻⁶ cm/s and the Papp B→A at 180 min, 100 µM came to 6.63 ×10⁻⁶ cm/s. Further, under “human, EMHPS 100 µM, Caco-2 monolayer, M ± SD, read-out: ER (Papp b-a/Papp a-b)”, the efflux ratio at 180 min, 100 µM was found to be 0.94 ± 0.039. Under setting [3], this compound had a Papp A→B at 180 min, 250 µM of 22.3 ×10⁻⁶ cm/s and a Papp B→A at 180 min, 250 µM of 16.5 ×10⁻⁶ cm/s. Moreover, the efflux ratio at 180 min, 250 µM (human, EMHPS 250 µM, Caco-2 monolayer, M ± SD, read-out: ER (Papp b-a/Papp a-b)) turned out to be 0.75 ± 0.26. The efflux ratio at 180 min (human, all concentrations (10, 100, and 250 µM), Caco-2 monolayer, read-out: ER (Papp b-a/Papp a-b)) is ~1.
